Values belong to the compound of their own block, whether it stands above or below them.
Assays:
Toll-like receptor 7 [1] = target: T1, Toll-like receptor 7 (Homo sapiens, UniProt Q9NYK1); experiment: Agonist activity at TLR7 in HEK-Blue hTLR7 cells expressing NF-kappaB/AP-1 inducible SEAP assessed as increase in SEAP activity incubated for 24 hrs by QUANTI-Blue assay; type: cell-based
T1 sequence (Q9NYK1 whole entry): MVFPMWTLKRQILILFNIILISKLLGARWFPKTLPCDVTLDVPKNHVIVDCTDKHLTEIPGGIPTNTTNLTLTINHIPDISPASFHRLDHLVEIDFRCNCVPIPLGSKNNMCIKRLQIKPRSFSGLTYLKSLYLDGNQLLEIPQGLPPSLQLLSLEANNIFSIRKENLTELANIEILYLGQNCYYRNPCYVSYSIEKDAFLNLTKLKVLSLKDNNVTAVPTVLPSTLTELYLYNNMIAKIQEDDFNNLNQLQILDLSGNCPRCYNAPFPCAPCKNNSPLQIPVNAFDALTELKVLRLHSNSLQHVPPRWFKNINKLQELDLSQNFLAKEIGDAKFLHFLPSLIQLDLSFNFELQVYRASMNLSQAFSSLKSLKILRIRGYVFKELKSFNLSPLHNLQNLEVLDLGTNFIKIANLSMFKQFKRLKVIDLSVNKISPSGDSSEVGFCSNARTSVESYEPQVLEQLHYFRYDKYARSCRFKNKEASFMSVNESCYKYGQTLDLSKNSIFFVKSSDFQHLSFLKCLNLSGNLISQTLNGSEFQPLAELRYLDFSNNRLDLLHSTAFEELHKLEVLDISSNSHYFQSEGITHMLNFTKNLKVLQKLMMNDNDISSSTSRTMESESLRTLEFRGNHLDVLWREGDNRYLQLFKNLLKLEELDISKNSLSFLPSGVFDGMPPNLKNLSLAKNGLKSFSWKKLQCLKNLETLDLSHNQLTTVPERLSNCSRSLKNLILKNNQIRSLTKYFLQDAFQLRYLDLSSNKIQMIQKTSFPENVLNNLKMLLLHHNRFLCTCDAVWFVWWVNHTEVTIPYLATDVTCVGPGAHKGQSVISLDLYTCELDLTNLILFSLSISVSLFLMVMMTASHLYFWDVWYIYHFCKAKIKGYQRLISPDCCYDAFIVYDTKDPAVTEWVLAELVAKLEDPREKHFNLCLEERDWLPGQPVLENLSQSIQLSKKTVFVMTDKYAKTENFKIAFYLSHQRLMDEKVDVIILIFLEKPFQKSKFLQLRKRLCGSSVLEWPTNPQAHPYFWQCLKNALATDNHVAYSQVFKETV

L929 = experiment: Cytotoxicity against mouse L929 cells assessed as reduction in cell viability upto 100 uM incubated for 24 hrs by CCK-8 assay; type: toxicity, cell-based; details: l929, 24 h
L02 = experiment: Cytotoxicity against human L02 cells assessed as reduction in cell viability upto 100 uM incubated for 24 hrs by CCK-8 assay; type: toxicity, cell-based; details: l02, 24 h
Toll-like receptor 7 [2] = target: T2, Toll-like receptor 7 (Mus musculus, UniProt P58681); experiment: Binding affinity to recombinant mouse TLR7 assessed as dissociation constant by SPR analysis
T2 sequence (P58681 whole entry): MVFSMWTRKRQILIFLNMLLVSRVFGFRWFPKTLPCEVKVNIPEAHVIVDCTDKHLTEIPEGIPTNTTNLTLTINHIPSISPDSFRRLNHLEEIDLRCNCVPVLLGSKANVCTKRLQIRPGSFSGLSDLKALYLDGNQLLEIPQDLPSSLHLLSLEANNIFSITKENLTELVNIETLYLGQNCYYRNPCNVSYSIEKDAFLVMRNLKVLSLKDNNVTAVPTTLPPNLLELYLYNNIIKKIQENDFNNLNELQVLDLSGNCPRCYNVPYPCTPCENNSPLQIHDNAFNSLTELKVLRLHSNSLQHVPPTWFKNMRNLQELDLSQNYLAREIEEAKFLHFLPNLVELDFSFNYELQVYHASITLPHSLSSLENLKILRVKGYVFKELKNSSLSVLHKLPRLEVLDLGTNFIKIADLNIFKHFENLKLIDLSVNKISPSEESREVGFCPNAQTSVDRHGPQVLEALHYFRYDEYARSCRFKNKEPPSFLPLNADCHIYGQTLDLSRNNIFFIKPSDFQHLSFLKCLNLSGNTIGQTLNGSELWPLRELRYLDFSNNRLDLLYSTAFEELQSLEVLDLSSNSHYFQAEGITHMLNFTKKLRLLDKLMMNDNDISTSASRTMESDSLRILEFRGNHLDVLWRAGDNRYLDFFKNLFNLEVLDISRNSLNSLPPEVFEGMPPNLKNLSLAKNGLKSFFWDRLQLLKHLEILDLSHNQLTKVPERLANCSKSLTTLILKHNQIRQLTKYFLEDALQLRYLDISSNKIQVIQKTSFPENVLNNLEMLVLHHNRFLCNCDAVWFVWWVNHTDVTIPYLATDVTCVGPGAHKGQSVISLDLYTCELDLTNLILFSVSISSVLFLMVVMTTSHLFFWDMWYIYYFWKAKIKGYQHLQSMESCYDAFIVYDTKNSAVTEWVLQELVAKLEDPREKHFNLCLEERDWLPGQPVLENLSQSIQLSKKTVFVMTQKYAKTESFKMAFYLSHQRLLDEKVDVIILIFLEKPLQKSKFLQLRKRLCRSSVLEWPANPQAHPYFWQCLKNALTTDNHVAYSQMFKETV

[3] = Toxicity in C57BL/6J mouse implanted with mouse B16-F10 cells assessed as reduction in body weight at 2.5 to 20 mg/kg, ip administered every 2 days starting from 3 days post tumor inoculation and measured on day 18; type: organism-based; details: in vivo, 360 h, dose 2.5-20 mg/kg, time 15 day
[4] = Toxicity in C57BL/6J mouse implanted with mouse B16-F10 cells assessed as splenomegaly at 25 mg/kg, ip administered every 2 days starting from 3 days post tumor inoculation and measured on day 18; type: organism-based; details: in vivo, 360 h, time 15 day
[5] = Toxicity in C57BL/6J mouse implanted with mouse B16-F10 cells assessed as increase in systemic TNF-alpha secretion in serum at 25 mg/kg, ip administered every 2 days starting from 3 days post tumor inoculation and measured on day 18 by ELISA; type: organism-based; details: in vivo, 360 h, time 15 day
[6] = Toxicity in C57BL/6J mouse implanted with mouse B16-F10 cells assessed as increase in systemic IL-6 secretion in serum at 25 mg/kg, ip administered every 2 days starting from 3 days post tumor inoculation and measured on day 18 by ELISA; type: organism-based; details: in vivo, 360 h, time 15 day
[7] = Toxicity in C57BL/6J mouse implanted with mouse B16-F10 cells assessed as pathological changes in heart at 25 mg/kg, ip administered every 2 days starting from 3 days post tumor inoculation and measured on day 18 by H and E staining based analysis; type: organism-based; details: in vivo, 360 h, time 15 day
[8] = Toxicity in C57BL/6J mouse implanted with mouse B16-F10 cells assessed as pathological changes in liver at 25 mg/kg, ip administered every 2 days starting from 3 days post tumor inoculation and measured on day 18 by H and E staining based analysis; type: organism-based; details: in vivo, 360 h, time 15 day
[9] = Toxicity in C57BL/6J mouse implanted with mouse B16-F10 cells assessed as pathological changes in kidney at 25 mg/kg, ip administered every 2 days starting from 3 days post tumor inoculation and measured on day 18 by H and E staining based analysis; type: organism-based; details: in vivo, 360 h, time 15 day
[10] = Toxicity in C57BL/6J mouse implanted with mouse B16-F10 cells assessed as physical abnormalities at 25 mg/kg, ip administered every 2 days starting from 3 days post tumor inoculation and measured on day 18; type: organism-based; details: in vivo, 360 h, time 15 day
[11] = Toxicity in C57BL/6J mouse implanted with mouse B16-F10 cells assessed as behavioral abnormalities at 25 mg/kg, ip administered every 2 days starting from 3 days post tumor inoculation and measured on day 18; type: organism-based; details: in vivo, 360 h, time 15 day
Peritoneal macrophage [12] = experiment: Induction of M1 like macrophage polarization in mouse peritoneal macrophages assessed as increase in CD86-positive cells at 10 ug/ml incubated for 24 hrs by flow cytometry analysis (reference value: 18.4%); type: functional; details: dose 10 µg/ml
Peritoneal macrophage [13] = experiment: Induction of M1 like macrophage polarization in mouse peritoneal macrophages assessed as decrease in CD206-positive cells at 10 ug/ml incubated for 24 hrs by flow cytometry analysis (reference value: 79%); type: functional; parameters: scale not given: the % may be the effect or the level left; details: dose 10 µg/ml
B16-F10 = experiment: Antitumor immunity against mouse B16-F10 cells implanted in C57BL/6J mouse assessed as increase in intracellular granzyme B level in tumor CD8-positive T cells at 25 mg/kg, ip administered every 2 days starting from 3 days post tumor inoculation and measured on day 18 by flow cytometry analysis (reference value: 14.5%); type: functional; details: time 15 day

Structure (SMILES): CCCCCc1nc2c(N)nc3ccccc3c2n1CC1CCOC1 (stereo not given)
EC50 (Toll-like receptor 7 [1]): 525 nM

Structure (SMILES): CCCc1nc2c(N)nc3ccccc3c2n1CC1CCOC1 (stereo not given)
EC50 (Toll-like receptor 7 [1]): 3280 nM

Structure (SMILES): CCOCc1nc2c(N)nc3ccccc3c2n1CC(C)(C)O [RESIQUIMOD]
Activity (Peritoneal macrophage [12]): 65.8%
Activity (Peritoneal macrophage [13]): 29.8%
Activity (B16-F10): 49.9%

Structure (SMILES): CCCCc1nc2c(N)nc3ccccc3c2n1Cc1ccc(C(=O)NC)cc1
EC50 (Toll-like receptor 7 [1]): 226 nM

Continued, in another order:

Kd (Toll-like receptor 7 [2]): 47.2 nM
Structure (SMILES): CCCCc1nc2c(N)nc3ccccc3c2n1CC1CCOC1 (stereo not given)
Activity (L929): Non-Toxic
Activity (L02): Non-Toxic
Activity [3]: Non-Toxic
Activity [4]: Non-Toxic
Activity [5]: Non-Toxic
Activity [6]: Non-Toxic
Activity [7]: Non-Toxic
Activity [8]: Non-Toxic
Activity [9]: Non-Toxic
Activity [10]: Non-Toxic
Activity [11]: Non-Toxic

EC50 (Toll-like receptor 7 [1]): > 20000 nM
Structure (SMILES): CCCc1nc2c(N)nc3ccccc3c2n1Cc1ccc(C(=O)OC)cc1

EC50 (Toll-like receptor 7 [1]): > 20000 nM
Structure (SMILES): CCCCc1nc2c(N)nc3ccccc3c2n1Cc1ccc(OC)cc1
